Consider two molecules from patent US8962652B2, “Derivatives of purine or deazapurine useful for the treatment of (inter alia) viral infections” (Gilead Sciences, Inc., priority 2009, dated 2015).

The subject of this experiment is human Peripheral Blood Mononuclear Cell (PMBC). Briefly: PBMC assay: cytokine (IFN-alpha) stimulation at 24 hours. In kind it is cell-based. To be noted: minimum concentration for induction of IFN-alpha = 3-fold over background. How it is done:
Assays were conducted to determine cytokine stimulation at 24 hours from human Peripheral Blood Mononuclear Cell (PMBC) using the compounds of the present invention. The assays were run in duplicate, with 8-point, half-log dilution curves. The compounds of the present invention were diluted from 10 mM DMSO solution. Cell supernatants are assayed directly for IFNa and 1:10 dilution for TNFa. The assays were performed in a similar fashion as described in Bioorg. Med. Chem. Lett. 16, 4559, (2006). Specifically, cryo-preserved PBMCs were thawed and seeded 96 well plates with 750,000 cells/well in 190 μL/well cell media. The PBMCs were then incubated for 1 hour at 37° C. at […]. Then, the compounds of the present invention were added in 10 μL cell media at 8 point, half-log dilution titration. The plates were incubated at 37° C. and 5% CO2 for 24 hours and then spinned at 1200 rpm for 10 min, which was followed by collecting supernatant and storing the same at −80° C. Cytokine secretion was assayed with Luminex and Upstate multi-plex kits, using a Luminex analysis instrument. IFN MEC value for a compound was the minimum concentration at which IFN-a production stimulated by the compound reached three fold above background, as determined using the assay method above.

Take `COCCOc1cc2c([nH]c(=O)n2Cc2ccc(-c3ccc(CN4CCCC4)cc3)cc2)c(N)n1` [AX]: the minimal effective concentration (read-out: MEC) was 0.001 to 0.009 µM. `CCCCOc1nc(N)c2[nH]c(=O)n(Cc3cccc(-c4ccccc4CN4CCCC4)c3)c2n1` [A]: the MEC result is recorded as “d (d: 100 nM-1000 nM)”.
